Test results published in paper PMC12053642, “Oral PRI-002 treatment in patients with MCI or mild AD: a randomized, double-blind phase 1b trial” (Nature Communications, 2025).
“And” between values parts separate entries of the source, which are not always exact repeats. Equal entries are not always repeated. Square brackets hold non-standard residues; d marks the D form. Peptide text beside a SMILES is read from it.

Key:
Type in all cases: in vivo, human
[1] = tested on: t-tau; test: CSF t-tau, Lumipulse immunoassay; settings: Day 28, n=9, 300 mg q.d. oral 28 d
Method: (§1) The effect of PRI-002 on cognition and function was tested by the CERAD+ battery and CDR-SB at baseline, Day 28, and Day 56, exploratory endpoints included the change of biomarkers (p-tau, t-tau, Aβ 1-40, Aβ 1-42 and Aβ oligomers) in CSF, blood plasma; change in CERAD+ test battery and CDR-SB scores.

[2] = tested on: patients with MCI or mild dementia due to AD; test: Safety laboratory (hematology, clinical chemistry, hematoserology); settings: 300 mg q.d. oral 28 d
Method: All safety parameters and laboratory values (urinalysis, complete blood count (CBC), Quick, partial thromboplastin time (PTT), creatinine, […] (CK), […] (CRP), alanine aminotransaminase (ALT), aspartate aminotransferase (AST)) as well as ECG, EEG, MRI, and vital signs were analyzed in a descriptive manner according to their scales (frequencies, means). In order to compare a variable between both groups (placebo vs PRI-002) at one time point, a parameter free Wilcoxon rank sum test was used. As described in the statistical analysis plan, linear mixed models with random effect were used for the comparison of longitudinal effects between both groups (placebo vs PRI-002). ANOVA was also applied to assess longitudinal effects. Since the results are similar to the linear mixed models, results are presented using linear mixed models. A 95% confidence interval was used to check whether the parameters are within their normal ranges. The p value (p < 0.05) for the word list test was not corrected for multiplicity. All statistical data analysis was performed with the certified software Statistical Analysis System (SAS) by MicroDiscovery GmbH (Berlin, Germany).

[3] = tested on: Aβ oligomers; test: CSF Aβ oligomers, sFIDA technology
Method: as §1

[4] = tested on: Aβ 1-40, Aβ 1-42; test: CSF Aβ 1-42 and ratio Aβ42/40, Lumipulse immunoassay; settings: Day 28, one line per patient, 300 mg q.d. oral 28 d
Method: as §1

[5] = tested on: patients with MCI or mild dementia due to AD; test: Mini-Mental State Examination (MMSE); settings: 300 mg q.d. oral 28 d
From the text: Twenty male and female (not of childbearing potential) patients between 50 and 80 years of age, with a Mini mental state examination (MMSE) score of 22 to 30, CSF biomarkers indicating AD pathology (p-tau >62 pg/ml, total CSF Aβ 1-42/1-40 ratio ≤0.055), a MRI scan in accordance with AD diagnosis not older than 3 months, at least 3 months stable medication prior to screening, were enrolled. Nineteen patients were randomized and data analyzed, one patient dropped out by withdrawal of the informed consent before treatment was initiated. Patients underwent an extensive clinical workup and received a MRI brain scan as well as a lumbar puncture. […] Patients who met any of the following criteria were not eligible for enrollment: History of seizures, stroke or transient ischemic attack, unstable medical, neurological, or psychiatric condition. Current treatment with typical antipsychotic or neuroleptic medication or within 6 months prior to screening. Anticoagulants within 3 months prior to screening, chronic use of opiates or opioids (including long-acting opioid medication) within 3 months prior to screening, stimulant medications (amphetamine, methylphenidate preparations, or modafinil) within 1 month prior to screening and throughout the study, chronic use of benzodiazepines, barbiturates, or hypnotics. […]

[6] = tested on: patients with MCI or mild dementia due to AD; test: CERAD word list learning and recall; design: key to WL Recall (Word list recall test), Mean / WL Recall: words recalled after delay, out of the 10-word list; key to WL learn (CERAD Word list learning), Mean / WL learn: words recalled summed over 3 trials of a 10-word list; settings: for WL Recall / WL learn: individual patient values, PRI-002 group; for WL learn, individual patients: one line per patient
Method: The CERAD Word Learning Test is a part of the CERAD cognitive test battery and assesses memory function, particularly for ADe and other dementias[34],[35]. It includes three parts: immediate recall, delayed recall, and recognition. During the test administration, a list of 10 words is read aloud three times, with the participant recalling as many as possible after each trial (immediate recall). After a delay of 5–10 min, they attempt to recall the words again (delayed recall), followed by a recognition task where they identify original words from a mixed list (recognition). The scores from the CERAD Word Learning Test are interpreted using normative data, which consider the participant’s age, gender, and education level. Normal range scores are considered between the 16th and 84th percentiles (z-score -1 to +1). For MCI scores between the 2nd and 15th percentiles (z-score -1 to -2) are expected. For significant cognitive impairment scores below the 2nd percentile (z-score < -2) are considered.

[7] = tested on: p-tau; test: CSF p-tau181, Lumipulse immunoassay; settings: Day 28, n=9, 300 mg q.d. oral 28 d
Method: as §1

[8] = EoT (Day 28), geometric mean ± SD
[9] = FU EoS (Day 56), geometric mean ± SD

CC(C)C[C@@H](NC(=O)[C@H](NC(=O)[C@H]1CCCN1)[C@H](C)O)C(=O)N[C@H](Cc1c[nH]cn1)C(=O)N[C@@H](C(=O)N[C@H](Cc1c[nH]cn1)C(=O)N[C@H](CC(N)=O)C(=O)N[C@H](CCCNC(=N)N)C(=O)N[C@H](CCCNC(=N)N)C(=O)N[C@H](CCCNC(=N)N)C(=O)N[C@H](CCCNC(=N)N)C(=O)N[C@H](CCCNC(=N)N)C(N)=O)[C@H](C)O [PRI-002] (H-[dP][dT][dL][dH][dT][dH][dN][dR][dR][dR][dR][dR]-NH2; N-terminus and C-terminus assumed)
t-tau, Mean [1]: 698.7 pg/mL
Hematocrit ([2]; Baseline (Day 1), geometric mean ± SD): 0.38±0.03 l/l
Erythrocyte ([2]; Day 14, geometric mean ± SD): 4.14 ± 0.42 pL⁻¹
Leucocyte ([2]; Day 14, geometric mean ± SD): 5.95 ± 1.71 nL⁻¹
PTT ([2]; Day 14, geometric mean ± SD): 31.60 ± 3.95 s
Quick value (prothrombin time) ([2]; Day 14, geometric mean ± SD): 96.99±21.30%
Erythrocyte [2, 8]: 4.06 ± 0.44 pL⁻¹
Leucocyte [2, 8]: 5.86 ± 1.81 nL⁻¹
PTT [2, 8]: 29.71 ± 1.94 s
Quick value (prothrombin time) [2, 8]: 101.13±9.55%
Erythrocyte [2, 9]: 4.10 ± 0.50 pL⁻¹
Hematocrit [2, 9]: 0.40±0.03 l/l
Leucocyte [2, 9]: 5.66 ± 1.41 nL⁻¹
PTT [2, 9]: 30.96 ± 3.11 s
Quick value (prothrombin time) [2, 9]: 98.71±21.08%
Hematocrit ([2]; Screening (Day 0), geometric mean ± SD): 0.39±0.03 l/l
changes in laboratory parameters (clinical chemistry, blood count, hematoserology) ([2]; screening to midterm visit to end of treatment): no clinically relevant changes
Aβ42 oligomers, Mean ([3]; CSF, Day 28, n=9, 300 mg q.d. oral 28 d): 4.747 fM
slope Abeta oligomers, individual patients ([3]; CSF, change from Day 1 to Day 28, one line per patient (n = 9), 300 mg q.d. oral 28 d): 1.237 and 0.635 and 0.4087 and 0.1526 and 0.3147 and -0.0095 and -0.4177 and -0.1322 and 0.7258
changes in p-tau, t-tau, Aβ 1-40, Aβ 1-42 and Aβ oligomers in CSF ([3]; Day 28 versus baseline and versus placebo, 300 mg q.d. oral 28 d): no significant changes
relationship between changes in Aβ oligomer concentrations and PRI-002 plasma levels at Day 1 ([3]; Spearman, two-tailed, n = 9): significant inverse relationship
Aβ42, individual patients [4]: 350 pg/mL and 512 pg/mL and 223 pg/mL and 748 pg/mL and 456 pg/mL and 595 pg/mL and 670 pg/mL and 791 pg/mL and 820 pg/mL
Ratio Aβ42/40, individual patients [4]: 0.033 and 0.050 and 0.026 and 0.042 and 0.036 and 0.045 and 0.059 and 0.056 and 0.047
MMSE, Mean ([5]; Day 28, n=8): 27.9
MMSE, Mean ([5]; Day 56, n=9): 27.2
WL Recall ([6]; Day 1): 3 and 4 and 1 and 5 and 7 and 9
WL learn ([6]; Day 1): 14 and 10 and 13 and 11 and 20 and 16 and 25
WL learn (CERAD Word list learning), Mean ([6]; Day 28 (end of treatment), n=8, 300 mg q.d. oral 28 d): 17.3 and 17.25
WL Recall ([6]; Day 28): 4 and 5 and 0 and 6 and 10 and 7
WL learn ([6]; Day 28): 15 and 14 and 12 and 16 and 25 and 17
WL Recall (Word list recall test), Mean ([6]; Day 28, n=8, 300 mg q.d. oral 28 d): 6.0
WL learn, individual patients ([6]; Day 28, 300 mg q.d. oral 28 d): 16 and 25 (2×) and 17 and 14 (2×) and 15 and 12
WL learn (CERAD Word list learning), Mean ([6]; Day 56 (End of Study), n=9, PV 0.036 vs placebo (Wilcoxon), 300 mg q.d. oral 28 d): 19.3 and 19.33
performance in the CERAD word list versus placebo ([6]; Day 56, P ≤ 0.05, not corrected for multiplicity, 300 mg q.d. oral 28 d): significantly better
WL Recall ([6]; Day 56): 5 and 4 and 3 and 8 and 10
WL learn ([6]; Day 56): 18 and 16 and 17 and 24 and 30
WL Recall (Word list recall test), Mean ([6]; Day 56, n=9, 300 mg q.d. oral 28 d): 5.4
WL learn, individual patients ([6]; Day 56, 300 mg q.d. oral 28 d): 18 (3×) and 24 and 30 and 17 (2×) and 16 (2×)
verum treated patients with improvement of memory function in the CERAD word list test ([6]; Day 56 versus baseline, of 9 patients, 300 mg q.d. oral 28 d): 9
Cohen's d effect size, WL learn, PRI-002 vs placebo ([6]; day 56, pooled SD, 300 mg q.d. oral 28 d): 0.94
Difference WL learn Baseline (day 1) to EoS (day 56), individual patients ([6]; one line per patient 1-9, 300 mg q.d. oral 28 d): 7 and 4 (2×) and 2 and 5 and 1 and 6 and 3 (2×)
p-tau, Mean [7]: 112.4 pg/mL
